Source: ChEMBL document CHEMBL4392866, “Cytotoxic Trichothecene Macrolides Produced by the Endophytic Myrothecium roridum” (J Nat Prod, 2019)

How the values were obtained:
SW 1116 = assay: Cytotoxicity against human SW1116 cells by disk diffusion soft agar colony formation assay; format: functional, cell-based
K562 = assay: Cytotoxicity against human K562 cells by disk diffusion soft agar colony formation assay; format: functional, cell-based

Row | SMILES | IC50 (SW 1116; sw 1116) | IC50 (K562; k562) | IC50 (SW 1116; Homo sapiens, SW 1116) | IC50 (K562; Homo sapiens, K562)
1 | CC1=C[C@H]2O[C@@H]3C[C@@H](OC(=O)/C=C\C=C\C(OCCC4=CC(=O)OC4)[C@@H](C)O)[C@](C)([C@@]2(COC(=O)/C=C(\C)CCO)CC1)[C@]31CO1 (stereo partly specified) | 3.1 nM | 1.2 nM |  | 
2 | CC(=O)[C@@]12CC/C=C\C(=O)O[C@@H]3C[C@H]4O[C@@H]5C=C(C)CC[C@]5(COC(=O)/C=C(\CCO1)[C@H]2O)[C@]3(C)[C@]41CO1 | 1.5 nM | 1.3 nM |  | 
3 | CC(=O)[C@@]12CC/C=C\C(=O)O[C@@H]3C[C@H]4O[C@@H]5[C@@H]6C[C@@]4(O)[C@@]3(C)[C@]5(CC[C@]6(C)O)COC(=O)/C=C(\CCO1)[C@H]2O |  |  | 22700 nM | 31600 nM
4 | CC1=C[C@H]2O[C@@H]3C[C@H]4OC(=O)/C=C\CC[C@]5(C(=O)CO)OCC/C(=C\C(=O)OC[C@@]2(CC1)[C@]4(C)[C@]31CO1)[C@H]5O | 550 nM | 920 nM |  | 
5 | CC1=C[C@H]2O[C@@H]3C[C@H]4OC(=O)/C=C\CC[C@@]56OCC/C(=C\C(=O)OC[C@@]2(CC1)[C@]4(C)[C@]31CO1)[C@H]5O[C@@H](O)[C@@H]6O | 1.5 nM | 1.1 nM |  | 
6 | CC1=C[C@H]2O[C@@H]3C[C@H]4OC(=O)/C=C\C=C\[C@@H]([C@@H](C)O)OCC/C(C)=C/C(=O)OC[C@@]2(CC1)[C@]4(C)[C@]31CO1 | 33 nM | 1 nM |  | 
7 | CC(=O)[C@@]12CC/C=C\C(=O)O[C@@H]3C[C@H]4O[C@@H]5[C@@H]6C[C@@]4(O)[C@@]3(C)[C@]5(CC[C@]6(C)O)COC(=O)/C=C(\CCO1)[C@@H]2O |  |  | 10600 nM | 970 nM
8 | CC(=O)O[C@@H]1/C2=C/C(=O)OC[C@@]34CC[C@](C)(O)[C@H]5C[C@]6(O)[C@@H](C[C@@H](OC(=O)/C=C\CC[C@]1(C(C)=O)OCC2)[C@]36C)O[C@H]54 |  |  | 4250 nM | 1530 nM
9 | C[C@]12[C@H]3C[C@H]4O[C@@H]5[C@H](C[C@]41O)[C@@](C)(O)CC[C@@]52COC(=O)/C=C1\CCO[C@]2(CC/C=C\C(=O)O3)[C@@H]1OC(=O)[C@@H]2O |  |  | 21100 nM | 16000 nM
10 | C/C1=C\C(=O)OC[C@]23CCC(CO)=C[C@H]2O[C@@H]2C[C@@H](OC(=O)/C=C\C=C\[C@H]([C@@H](C)O)OCC1)[C@@]3(C)[C@]21CO1 | 9060 nM | 7130 nM |  | 
11 | C[C@]12[C@H]3C[C@H]4O[C@@H]5[C@H](C[C@]41O)[C@@](C)(O)CC[C@@]52COC(=O)/C=C1\CCO[C@@]2(CC/C=C\C(=O)O3)[C@H](O)C(=O)O[C@H]12 |  |  | 11600 nM | 16000 nM
12 | CC(=O)[C@@]12CC/C=C\C(=O)O[C@@H]3C[C@H]4O[C@@H]5C=C(CO)CC[C@]5(COC(=O)/C=C(\CCO1)[C@H]2O)[C@]3(C)[C@]41CO1 | 180 nM | 2870 nM |  | 
13 | CC1=C[C@H]2O[C@@H]3C[C@H]4OC(=O)/C=C\CC[C@@]56OCC/C(=C\C(=O)OC[C@@]2(CC1)[C@]4(C)[C@]31CO1)[C@H]5OC(=O)[C@@H]6O | 200 nM | 56 nM |  | 
14 | C[C@]12[C@H]3C[C@H]4O[C@@H]5[C@H](C[C@]41O)[C@@](C)(O)CC[C@@]52COC(=O)/C=C1\CCO[C@@](C(=O)CO)(CC/C=C\C(=O)O3)[C@@H]1O |  |  | 23100 nM | 26700 nM
15 | CC1=C[C@H]2O[C@@H]3C[C@H]4OC(=O)/C=C\CC[C@@]5([C@H](C)O)OCC/C(=C\C(=O)OC[C@@]2(CC1)[C@]4(C)[C@]31CO1)[C@@H]5O | 2270 nM | 510 nM |  | 
16 | C/C1=C\C(=O)OC[C@]23CCC(CO)=C[C@H]2O[C@@H]2C[C@@H](OC(=O)/C=C\C=C\C(=O)OCC1)[C@@]3(C)[C@]21CO1 | 160 nM | 6.4 nM |  | 
17 | C[C@]12[C@H]3C[C@H]4O[C@@H]5[C@H](C[C@]41O)[C@@](C)(O)CC[C@@]52COC(=O)/C=C1\CCO[C@]2(CC/C=C\C(=O)O3)[C@@H]1O[C@H](O)[C@H]2O |  |  | 570 nM | 8200 nM
18 | CC1=C[C@H]2O[C@@H]3C[C@H]4OC(=O)/C=C\C=C\[C@H]([C@@H](C)O)OCC/C(CO)=C/C(=O)OC[C@@]2(CC1)[C@]4(C)[C@]31CO1 | 7920 nM | 3150 nM |  | 
19 | C[C@@H]1CCOC(=O)/C=C/C=C\C(=O)O[C@@H]2C[C@H]3O[C@@H]4C=C(CO)CC[C@]4(COC(=O)[C@H]1O)[C@]2(C)[C@]31CO1 [16-HYDROXY VERRUCARIN A] | 12 nM | 1.7 nM |  | 
20 | O=c1[nH]cc(F)c(=O)[nH]1 [FLUOROURACIL] |  |  | 76900 nM | 32900 nM
21 | CC1=C[C@H]2O[C@@H]3C[C@H]4OC(=O)/C=C\C=C\[C@H]([C@@H](C)O)OCC[C@@H](C)[C@H](O)C(=O)OC[C@@]2(CC1)[C@]4(C)[C@]31CO1 [RORIDIN A] | 210 nM | 7.1 nM |  | 
22 | CC1=C[C@H]2O[C@@H]3C[C@H]4OC(=O)/C=C\C=C\[C@H]([C@@H](C)O)OCC/C(C)=C/C(=O)OC[C@@]2(CC1)[C@]4(C)[C@]31CO1 [RORIDIN E] | 39 nM | 540 nM |  | 
23 | CC1=C[C@H]2O[C@@H]3C[C@H]4OC(=O)/C=C\C=C\C(=O)OCC[C@@H](C)[C@H](O)C(=O)OC[C@@]2(CC1)[C@]4(C)[C@]31CO1 [VERRUCARIN A] | 1.8 nM | 3 nM |  | 
